± gives the expanded uncertainty stated by the source.
Conditions: Crystal; visual observation

Normal melting temperature: 220.20 ± 1.4 °C
Structure (SMILES): F[P-](F)(F)(F)(F)F.F[P-](F)(F)(F)(F)F.c1cc[n+](CC[n+]2ccccc2)cc1 [1,1'-(ethane-1,2-diyl)bis(pyridin-1-ium) hexafluorophosphate]
